# Experimental data reported in US20170246137A1, “SULFESTROL FOR TREATING CANCER” (CHAMAELEO PHARMA BVBA, priority 2012, published 2017).
# pIC50: −log10 of the molar value. “And” between values parts separate entries of the source, which are not always exact repeats. Identical values can stand only once.
# Key:
# DU-145 = experiment: In vitro direct cytotoxicity, Cell titer Blue viability, 72 hrs; format: cell-based
# Experimental: (§1) Cells were harvested, washed, re-suspended into growth medium and counted.
# (§2) Stocks of all compounds were then serially diluted. […] Positive control was Taxotere. Taxotere was diluted in 100% DSMO to give a stock concentration of 1 mM. Stock was serially diluted. Final concentrations to which cells were exposed were 1000, 333.3, 111.1, 37.0, 12.3, 4.1, 1.4, 0.5, and 0.2 nM.
# LNCaP = experiment: as above; format: cell-based
# Experimental: as §1, §2
# MCF7 = experiment: as above
# Experimental: (§3) Cells were maintained in vitro in RPMI 1640 containing 10% (v/v) heat inactivated FBS and 2 mM L-glutamine (growth media) at 37° C. in 5% CO2 and humidified conditions. Cells were harvested, washed, resuspended into growth medium and counted. The cells were re-suspended into assay media (RPMI 1640+1% (v/v) heat inactivated FBS+ and 2 mM L-glutamine) at 0.5-1×10^5 cells/ml (dependent upon cell type) and plated into 96-well assay plates (Corning, black-wall plates) in 50 ul/well aliquots.
# (§4) Plates were incubated overnight at 37° C. in 5% humidified CO2 prior to addition of the compounds. […] Stocks of all compounds were then serially diluted. Final concentrations to which cells were exposed were 300, 150, 75, 37.5, 18.75, 9.4, 4.7, 2.3, 1.2, 0.6 μM. Positive control was Cisplatin. Cisplatin was diluted in 1% FBS media to give a stock concentration of 1 mM. Cisplatin stock was then serially diluted. Final concentrations to which cells were exposed were 100, 50, 25, 12.5, 6.3, 3.1, 1.6, 0.8, 0.4, 0.2 μM.
# (§5) Plates were incubated for 72 hrs at 37° C. in 5% humidified CO2 after addition of the compounds. Viability of the cells was assessed with the Cell titer Blue™ (Promega) assay. 10 μl of Cell titer Blue™ reagents was added to each test/blank well. Plates were incubated 3 h at 37° C. in 5% humidified CO2 prior to analysis. Fluorescence was measured with a Flex II station plate reader. Excitation wavelength was 570 nm, emission wave length was 600 nm, cut off was 590 nm. Raw data was processed by GraphPad Prism to calculate mean, standard deviation and IC50 values.
# MDA-MB-231 = experiment: as above
# Experimental: as §3, §4, §5
# [1] = system: platelet-rich plasma (PRP); experiment: Platelet-aggregation-inducing effects in platelet-rich plasma, absorbance 630 nm; format: cell-based; conditions: 7 minutes, human PRP
# Experimental: Blood necessary to generate PRP was obtained from 4 healthy human volunteers. 100 ml of fresh venous blood from each donor was isolated directly into tubes containing 1/10th volume of the anti-coagulant Tri-Sodium Citrate (3.2% w/v). The blood and anti-coagulant were immediately mixed and the final concentration of Tri-Sodium Citrate was 0.0106 M.
# PRP was prepared by centrifugation of anti-coagulated blood at 180 g for 10 minutes at room temperature. The cloudy yellow supernatant containing the platelets was removed and placed into a clean polypropylene tube. Platelet-poor plasma (PPP) was prepared by centrifuging the remaining sample at 1,200 g for 20 minutes at room temperature. The PRP was adjusted to a suitable platelet count and absorbance at 630 nm by addition of PPP.
# All three compounds were dissolved in 100% DMSO to give a stock concentration of 60 mM. […] […] 100 nM gamma thrombin (Cambridge bioscience) was used as control for platelet aggregation. 90 μl aliquots of PRP were added to 96 wells plates. A baseline absorbance reading was taken at 630 nm. 5 μl of the compounds and gamma thrombin control was added to the appropriate PRP.
# The plates were incubated at room temperature for 7 minutes on a plate shaker with continuous shaking. A second A630 nm reading was made after the 7 minutes incubation to measure any platelet aggregation induced by the compounds.
# [2] = Concentration of Mono-Sulfestrol in pooled plasma samples, LC-UV quantification; format: in vivo, male Sprague Dawley rats; conditions: 10 mg/kg of the labelled compound, rat, pooled 0.5-8 hrs
# Experimental: The concentration of Mono-Sulfestrol in the pooled samples described in Example 6 was quantified by LC-UV quantification.
# A calibration standard solution was prepared as 10,000 ng/mL by adding an appropriate amount of Mono-Sulfestrol into 20% acetonitrile/0.1% formic acid in water. The peak area of the standard solution and the sample were measured with the wavelength set at 200 to 360 nm. The concentration levels of Mono-Sulfestrol were estimated using peak area (Area) of the standard and unknown samples and concentration of the standard (Concstd) by the following equation:
# Areaunknown/Areastd=Concunknown/Concstd
# Concunknown=Concstd·(Areaunknown/Areastd)
# [3] = Metabolites in plasma after oral and intravenous administration, LC-MS/MS
# Experimental: Metabolites were identified after oral and intravenous administration of the compounds.
# Each group consisted of three rats, giving a total of 12 animals. Compounds were dosed at 10 mg/kg for both oral and intravenous administration. A 0.9% saline solution was used as vehicle for oral and intravenous administration.
# Prior to intravenous administration, the solution was filtered through a 0.22 μM filter. Oral dosing was performed using a oral gavage. Tail vein injection was used for intravenous administration.
# At 0.5, 1, 2, 4, 6 and 8 hrs post administration, 0.25 ml blood was drawn from the animals and immediately transferred to prechilled microcentrifuge tubes containing 4 μl of K2-EDTA to prevent coagulation. Plasma was obtained by centrifugation of the plasma and stored at −70° C. until analysis. Plasma drawn from each individual rat was pooled according to the following schedule:
# The pooled samples were analyzed using LC-MS/MS and the relative percentage of each metabolite in the pooled sample was measured on the basis of the mass spectrometric peak areas of the parent and its metabolites in the plasma.
substance,measurement,setting,value
4-(4-(4-oxidophenyl)hex-3-en-3-yl)phenyl sulfate [Mono-Sulfestrol],cytotoxicity in vitro (in words),DU-145; DU-145,inactive
same,IC50 value,"DU-145; DU-145, hormone-independent prostate cancer cell line, 72 hrs",Not active
same,cytotoxicity in vitro (in words),LNCaP,inactive
same,IC50 value,"LNCaP; hormone-dependent prostate cancer cell line, 72 hrs",Not active
same,cytotoxicity in vitro (in words),MCF7; MCF7,cytotoxic
same,pIC50,"MCF7; read-out: IC50 value, MCF7, hormone-dependent breast cancer cell line, 72 hrs",4.07
same,cytotoxicity in vitro (in words),MDA-MB-231; MDA-MB231,cytotoxic
same,pIC50,"MDA-MB-231; read-out: IC50 value, MDA-MB-231, triple negative breast cancer cell line, 72 hrs",3.73
same,Absorbance (630 nm),"[1]; 2.3 μM, high absorbance = low aggregation",0.274 ± 0.034
same,Absorbance (630 nm),[1]; 4.7 μM,0.277 ± 0.029
same,Absorbance (630 nm),[1]; 9.4 μM,0.272 ± 0.029
same,Absorbance (630 nm),[1]; 18.75 μM,0.275 ± 0.029
same,Absorbance (630 nm),[1]; 37.5 μM,0.278 ± 0.030
same,Absorbance (630 nm),[1]; 75 μM,0.281 ± 0.031
same,Absorbance (630 nm),[1]; 150 μM,0.283 ± 0.036
same,Mono-Sulfestrol concentration in pooled plasma sample,[2]; intravenous,630.0 ng/ml and 1.5 μM
same,Mono-Sulfestrol concentration in pooled plasma sample,[2]; oral,1150.6 ng/ml and 2.7 μM
same,metabolic fate in rat plasma (in words),[3]; 10 mg/kg oral and intravenous,undergoes minimal metabolic processing
same,Relative Abundance,[3]; pooled rat plasma after Mono-Sulfestrol 10 mg/kg IV,IV: 86.99%
same,Relative Abundance,[3]; pooled rat plasma after Mono-Sulfestrol 10 mg/kg PO,PO: 91.91%
